Experimental findings from patent US20250011300A1, “PIPERAZINYLSULFONYLARYL COMPOUNDS FOR TREATMENT OF BACTERIAL INFECTIONS” (Hoffmann-La Roche Inc., priority 2021, published 2025) are described below.

For assay [1], the target named is Escherichia coli LpxH (UDP-2,3-diacylglucosamine hydrolase) (Escherichia coli (strain K12), UniProt P43341). Kind of assay: 50% Inhibitory Concentration (IC50) to LpxH, UMP/CMP-Glo Glycosyltransferase Assay kit. The assay is classed as biochemical. On the procedure:
Example 121: 50% Inhibitory Concentration (IC50) to UDP-2,3-diacylglucosamine hydrolase (LpxH)
The inhibitory potency of molecules to UDP-2,3-diacylglucosamine hydrolase (LpxH) was determined using the UMP/CMP-Glo™ Glycosyltransferase Assay kit. LpxH hydrolyzes the pyrophosphate bond of UDP-2,3-diacylglucosamine (UDP-DAG) to yield 2,3-diacylglucosamine 1-phosphate (lipid X) and UMP. The assay kit could quantify the UMP production by convert the UMP to ATP and generate light in a luciferase reaction. The compound's effect on the LpxH activity is detected by measuring the light using a luminometer (Envision).

The test system of the next assay is E. coli (ATCC 25922). Put plainly: Minimal Inhibitory Concentration (MIC) assay, E. coli. The assay is classed as cell-based. The settings on record: Escherichia coli, ATCC25922; E. coli ATCC 25922, CAMHB, 20 hours at 35° C.; read-out: MIC E. coli ATCC 25922. On the procedure:
(§1) Example 122: Minimal Inhibitory Concentration Protocol (MIC) Assay
(§2) The in vitro potency of compounds to inhibit E. coli (ATCC 25922) and K. pneumonia (ATCC 43816) growth was assessed by MIC (Minimal Inhibitory Concentration) assay. Samples were prepared from 10 mM DMSO stock solutions. After serial 2-fold dilution in DMSO in a master plate (Greiner, Cat No: 651201), 180 μL sterile distilled water was added to 20 μL each aliquot of the samples. Then 10 μL diluted compounds were transferred into a new assay plate (Costar, 3599).
(§3) The growth medium Cation-Adjusted Mueller Hinton Broth (CAMHB) was prepared by adding the 20 mg per liter CaCl2) and 20 mg per liter MgCl2 into the MHB medium (Jianglai Company, sterilized).
(§4) Vials of each of the test microorganisms were maintained frozen in the vapor phase of a liquid nitrogen freezer. The bacteria E. coli ATCC 25922 (KWIKSTIK, 0335K) and K. pneumonia ATCC 43816 were taken out from liquid nitrogen freezer, then thawed in room temperature, and diluted in the CAMHB medium to achieve a final inoculum of 5×10^5 CFU/mL. 90 μL CAMHB with bacteria was dispensed to the assay plate and pipetted 5 times.
(§5) Then the assay plates were incubated for 20 hours at 35° C. in ambient air. Following incubation, the MIC (μg/mL), the lowest concentration of drug that inhibits visible growth of the microorganism was read and recorded throw the microscope.

Assay [2] deals with K. pneumonia (ATCC 43816). Put plainly: Minimal Inhibitory Concentration (MIC) assay, K. pneumonia. The assay is classed as cell-based. The settings on record: Klebsiella pneumoniae; K. pneumoniae ATCC43816, CAMHB, 20 hours at 35° C.; read-out: MIC K. pneumoniae ATCC43816. On the procedure:
as §1, §2, §3, §4, §5

pIC50: −log10 of the molar value. Values after ≈ are worked out from the molar mass of the structure shown.

Sequence of Escherichia coli LpxH (UDP-2,3-diacylglucosamine hydrolase) (P43341 whole entry): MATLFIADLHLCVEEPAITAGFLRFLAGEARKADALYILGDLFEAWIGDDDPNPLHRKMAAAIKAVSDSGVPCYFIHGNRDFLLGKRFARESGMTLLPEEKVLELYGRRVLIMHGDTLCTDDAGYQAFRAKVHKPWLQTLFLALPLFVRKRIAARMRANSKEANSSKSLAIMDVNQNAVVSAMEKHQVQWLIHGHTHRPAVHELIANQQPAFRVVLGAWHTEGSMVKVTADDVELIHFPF

The pIC50 is the IC50 on a negative log10 scale, so that one unit is a factor of ten. Low values mean a large IC50, high ones a small IC50. Usually MIC stands for the least concentration at which growth counts as inhibited. Take `NC1CC(=O)N(c2ccc(S(=O)(=O)N3CCN(c4cc(C(F)(F)c5cncnc5)cc(Cl)n4)CC3)cc2)C1` (stereo not drawn) [Example 92, 4-Amino-1-[4-[4-[6-chloro-4-[difluoro(pyrimidin-5-yl)methyl]-2-pyridyl]piperazin-1-yl]sulfonylphenyl]pyrrolidin-2-one]: in assay [1], the pIC50 was 7.02. Further, the MIC in the assay with E. coli (ATCC 25922) is 2.12 µg/mL (≈ 3.76 µM); in assay [2], 4.24 µg/mL (≈ 7.52 µM).
In the same order, the values of `CNCC1CN(c2ccc(S(=O)(=O)N3CCN(c4cc(C(F)(F)F)cc(Cl)n4)CC3)cc2)C(=O)O1` (stereo not drawn) [Example 27, 3-[4-[4-[6-Chloro-4-(trifluoromethyl)-2-pyridyl]piperazin-1-yl]sulfonylphenyl]-5-(methylaminomethyl)oxazolidin-2-one] are 7.65, 1.78 µg/mL (≈ 3.33 µM) and 3.57 µg/mL (≈ 6.69 µM).
For `O=C1O[C@@H]2CCCNC[C@@H]2N1c1ccc(S(=O)(=O)N2CCN(c3cc(C(F)(F)F)cc(Cl)n3)CC2)cc1` [Example 19, (3aS,8aR)-3-[4-[4-[6-chloro-4-(trifluoromethyl)-2-pyridyl]piperazin-1-yl]sulfonylphenyl]-4,5,6,7,8,8a-hexahydro-3aH-oxazolo[4,5-c]azepin-2-one], in that order: 7.47, 1.05 µg/mL (≈ 1.88 µM) and 1.05 µg/mL (≈ 1.88 µM).
With `NC1CC(=O)N(c2ccc(S(=O)(=O)N3CCN(c4cc(S(=O)(=O)C5CCOCC5)cc(Cl)n4)CC3)cc2)C1` (stereo not drawn) [Example 70, 4-Amino-1-[4-[4-(6-chloro-4-tetrahydropyran-4-ylsulfonyl-2-pyridyl)piperazin-1-yl]sulfonylphenyl]pyrrolidin-2-one], the negative logarithm of the IC50 (pIC50) in assay [1] was 7.32. Also, the MIC (with E. coli (ATCC 25922); in assay [2]) was 15.5 µg/mL (≈ 26.6 µM) each time.
As to `O=C1OC(CN2CC3(CNC3)C2)CN1c1ccc(S(=O)(=O)N2CCN(c3cc(C(F)(F)F)cc(Cl)n3)CC2)cc1` (stereo not drawn) [Example 32, 3-[4-[4-[6-Chloro-4-(trifluoromethyl)-2-pyridyl]piperazin-1-yl]sulfonylphenyl]-5-(2,6-diazaspiro[3.3]heptan-2-ylmethyl)oxazolidin-2-one], the negative-log IC50 (pIC50) in assay [1] was 7.60. Besides, the minimal inhibitory concentration (MIC) (in the assay with E. coli (ATCC 25922); in assay [2]) was 8.94 µg/mL (≈ 14.9 µM) throughout.
Turning to `NC1CN(C2CC(=O)N(c3ccc(S(=O)(=O)N4CCN(c5cc(C(F)(F)F)cc(Cl)n5)CC4)cc3)C2)C1` (stereo not drawn) [Example 51, 4-(3-Aminoazetidin-1-yl)-1-[4-[4-[6-chloro-4-(trifluoromethyl)-2-pyridyl]piperazin-1-yl]sulfonylphenyl]pyrrolidin-2-one], the pIC50 in assay [1] is 7.27. For the same molecule, the MIC was 3.78 µg/mL (≈ 6.76 µM) in the assay with E. coli (ATCC 25922) and 15.1 µg/mL (≈ 27.1 µM) in assay [2].
With `O=C1CC(NC2CCNCC2)CN1c1ccc(S(=O)(=O)N2CCN(c3cc(C(F)(F)F)cc(Cl)n3)CC2)cc1` (stereo not drawn) [Example 60, 1-[4-[4-[6-Chloro-4-(trifluoromethyl)-2-pyridyl]piperazin-1-yl]sulfonylphenyl]-4-(4-piperidylamino)pyrrolidin-2-one], in assay [1], the pIC50 was 8.07. The figures for the minimal inhibitory concentration (MIC) (in the assay with E. coli (ATCC 25922); in assay [2]) were 1.95 µg/mL (≈ 3.32 µM) and 3.9 µg/mL (≈ 6.64 µM), respectively.
In assay [1], `NCC1CN(c2ccc(S(=O)(=O)N3CCN(c4cc(C(F)(F)F)cc(Cl)n4)CC3)cc2)C(=O)O1` (stereo not drawn) [Example 3, 5-(Aminomethyl)-3-[4-[4-[6-chloro-4-(trifluoromethyl)-2-pyridyl]piperazin-1-yl]sulfonylphenyl]oxazolidin-2-one] gave a pIC50 of 6.34. Also, the figures for the MIC (in the assay on E. coli (ATCC 25922); in assay [2]) were 3.96 µg/mL (≈ 7.62 µM) and 1.98 µg/mL (≈ 3.81 µM), respectively.
Consider `NC1CC(=O)N(c2ccc(S(=O)(=O)N3CCN(c4cc(C(F)(F)C5=CCOCC5)cc(Cl)n4)CC3)cc2)C1` (stereo not drawn) [Example 98, 4-Amino-1-[4-[4-[6-chloro-4-[3,6-dihydro-2H-pyran-4-yl(difluoro)methyl]-2-pyridyl]piperazin-1-yl]sulfonylphenyl]pyrrolidin-2-one], for which the negative logarithm of the IC50 (pIC50) in assay [1] was 7.32. Further, the MIC (in the assay on E. coli (ATCC 25922); in assay [2]) was 0.89 µg/mL (≈ 1.57 µM) each time.
Take `CN(C)C1CN(CC2CC(=O)N(c3ccc(S(=O)(=O)N4CCN(c5cc(C(F)(F)F)cc(Cl)n5)CC4)cc3)C2)C1` (stereo not drawn) [Example 42, 1-[4-[4-[6-Chloro-4-(trifluoromethyl)-2-pyridyl]piperazin-1-yl]sulfonylphenyl]-4-[[3-(dimethylamino)azetidin-1-yl]methyl]pyrrolidin-2-one]: the pIC50 in assay [1] was 7.82. Also, the MIC (with E. coli (ATCC 25922); in assay [2]) was 10.4 µg/mL (≈ 17.2 µM) throughout.
Molecule `N[C@@H]1CC(=O)N(c2ccc(S(=O)(=O)N3CCN(c4cc(C(F)(F)C5CNC5)cc(Cl)n4)CC3)cc2)C1` [Example 109, (4R)-4-amino-1-[4-[4-[4-[azetidin-3-yl(difluoro)methyl]-6-chloro-2-pyridyl]piperazin-1-yl]sulfonylphenyl]pyrrolidin-2-one] showed a negative logarithm of the IC50 (pIC50) in assay [1] of 7.17. The MIC (with E. coli (ATCC 25922); in assay [2]) was 16.4 µg/mL (≈ 30.3 µM) in each case.
In turn, `NC1CC(=O)N(c2ccc(S(=O)(=O)N3CCN(c4cc(C(F)(F)C5CCCOC5)cc(Cl)n4)CC3)cc2)C1` (stereo not drawn) [Example 99, 4-Amino-1-[4-[4-[6-chloro-4-[difluoro(tetrahydropyran-3-yl)methyl]-2-pyridyl]piperazin-1-yl]sulfonylphenyl]pyrrolidin-2-one] showed a negative logarithm of the IC50 (pIC50) in assay [1] of more than 8.45. Besides, the MIC is 4.01 µg/mL (≈ 7.03 µM) in the assay on E. coli (ATCC 25922) and 0.89 µg/mL (≈ 1.56 µM) in assay [2].
In assay [1], `NC1CC(=O)N(c2ccc(S(=O)(=O)N3CCN(c4cc(C(F)(F)c5ncccn5)cc(Cl)n4)CC3)cc2)C1` (stereo not drawn) [Example 94, 4-Amino-1-[4-[4-[6-chloro-4-[difluoro(pyrimidin-2-yl)methyl]-2-pyridyl]piperazin-1-yl]sulfonylphenyl]pyrrolidin-2-one] showed a negative-log IC50 (pIC50) of 6.73. For the same molecule, the MIC (in the assay with E. coli (ATCC 25922); in assay [2]) was 3.53 µg/mL (≈ 6.26 µM) each time.
In assay [1], `O=C1OC2(CNC2)CN1c1ccc(S(=O)(=O)N2CCN(c3cc(C(F)(F)F)cc(Cl)n3)CC2)cc1` [Example 13] showed a negative logarithm of the IC50 (pIC50) of 6.89. Further, the figures for the minimum inhibitory concentration (MIC) (in the assay with E. coli (ATCC 25922); in assay [2]) were 0.83 µg/mL (≈ 1.56 µM) and 2.49 µg/mL (≈ 4.68 µM), respectively.
In assay [1], `NCC1CN(c2ccc(S(=O)(=O)N3CCN(c4cc(C(F)(F)c5ccccc5)cc(Cl)n4)CC3)cc2)C(=O)O1` (stereo not drawn) [Example 88, 5-(Aminomethyl)-3-[4-[4-[6-chloro-4-[difluoro(phenyl)methyl]-2-pyridyl]piperazin-1-yl]sulfonylphenyl]oxazolidin-2-one] gave a pIC50 of 7.86. Further, the MIC in the assay with E. coli (ATCC 25922) is 0.26 µg/mL (≈ 0.45 µM); in assay [2], 0.53 µg/mL (≈ 0.917 µM).
As to `O=C1O[C@@H]2CCNC[C@@H]2N1c1ccc(S(=O)(=O)N2CCN(c3cc(C(F)(F)F)cc(Cl)n3)CC2)cc1` [Example 18, (3aS,7aR)-3-[4-[4-[6-chloro-4-(trifluoromethyl)-2-pyridyl]piperazin-1-yl]sulfonylphenyl]-3a,4,5,6,7,7a-hexahydrooxazolo[4,5-c]pyridin-2-one], in assay [1], the pIC50 is 6.82. Also, the MIC (with E. coli (ATCC 25922); in assay [2]) was 0.91 µg/mL (≈ 1.67 µM) in each case.
As to `O=C1O[C@H]2CNC[C@H]2N1c1ccc(S(=O)(=O)N2CCN(c3cc(C(F)(F)F)cc(Cl)n3)CC2)cc1` [Example 15, (3aR,6aS)-3-[4-[4-[6-chloro-4-(trifluoromethyl)-2-pyridyl]piperazin-1-yl]sulfonylphenyl]-4,5,6,6a-tetrahydro-3aH-pyrrolo[3,4-d]oxazol-2-one], the pIC50 in assay [1] is 7.02. In addition, the minimal inhibitory concentration (MIC) with E. coli (ATCC 25922) stood at 1.01 µg/mL (≈ 1.9 µM); in assay [2], 2.02 µg/mL (≈ 3.8 µM).
